Results as given in paper PMC12076188 (Cancer Research Communications, 2025).
Read-outs that look alike come from different tables or passages of the source. Values belong to the molecule of their own block, whether it stands above or below them.

Experiments:
GppNp-bound NRAS WT = molecular target: T1, GppNp-bound NRAS WT (Homo sapiens, UniProt P01111); experiment: GppNp-loaded RAS and cRAF interaction assay (HTRF); type: biochemical
T1 construct: His-tagged NRAS WT (aa 1–172); made in house; host or cells: Escherichia coli
T1 sequence (P01111 1-172): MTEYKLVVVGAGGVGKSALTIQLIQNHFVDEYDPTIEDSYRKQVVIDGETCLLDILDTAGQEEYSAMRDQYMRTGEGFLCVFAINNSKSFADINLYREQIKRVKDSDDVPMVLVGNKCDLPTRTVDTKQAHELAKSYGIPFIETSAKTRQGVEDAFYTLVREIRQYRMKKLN

GDP-bound NRAS WT = molecular target: T2, GDP-bound NRAS WT (Homo sapiens, UniProt P01111); experiment: SOS1-mediated guanine nucleotide exchange assay (TR-FRET); type: biochemical
T2 construct: His-tagged NRAS WT (aa 1–172); made in house; host or cells: Escherichia coli
T2 sequence (P01111 1-172): as above

[1] = test system: NCI-H1373 lung cancer xenograft; experiment: Cell line–derived xenograft study; type: in vivo, BALB/c-nu mice; settings: NCI-H1373 lung cancer xenograft model; single agents or combination, orally once a day
Source text: Female BALB/c nude mice (CAnN.Cg-Foxn1^nu/Crl, RRID: IMSR_CRL:194) were obtained from Beijing Vital River Laboratory Animal Technology Co., Ltd. Female BALB/c-nu mice (BALB/cAnSlacNifdc-nu) were obtained from SPF (Beijing) Biotechnology Co., Ltd. Female NCG mice (NOD/ShiLtJGpt-Prkdc^em26Cd52Il2rg^em26Cd22/Gpt) were obtained from GemPharmatech. Subcutaneous tumors were induced by injecting cells in PBS containing 50% BD Matrigel (Corning) in the right flank of female BALB/c-nu mice (NCI-H1373, 5 × 10^6 cells), female BALB/c nude mice (MIA PaCa-2, 1 × 10^7 cells), or female NCG mice (NCI-H358, 5 × 10^6 cells).

[2] = test system: CR6256 PDX tumors rebounding after sotorasib treatment; experiment: PDX study on tumors regrown under sotorasib; type: in vivo, mice; settings: after 63 days of 100 mg/kg sotorasib; then 100 mg/kg sotorasib, 100 mg/kg glecirasib, 50 mg/kg cetuximab or combination
[3] = test system: Ba/F3 cells carrying HRAS p.G12C; experiment: Ba/F3-engineered cell line viability; type: cell-based; settings: Mus musculus, BaF3, 144 h; Ba/F3 HRAS p.G12C; 6 days of treatment; read-out: Cell viability IC50
Description: (§1) The inhibitory activity of compounds on Ba/F3-engineered cell line viability was tested by Kyinno Biotechnology. Other cell viability assays on human cancer cell lines were conducted in-house. Cells were seeded in 96-well plates and incubated overnight, followed by treatment with various concentrations of compounds or solvent control for 6 days. Cell viability was detected using either the CellTiter-Glo (CTG) luminescent cell viability assay or the CTG 3D cell viability assay (Promega) for 2D and 3D CTG assays, respectively. […] The cell density is indicated in Supplementary Table S3.

[4] = test system: Ba/F3 cells carrying NRAS p.G12C; experiment: Ba/F3-engineered cell line viability; type: cell-based; settings: Mus musculus, BaF3, 144 h; Ba/F3 NRAS p.G12C; 6 days of treatment; read-out: Cell viability IC50
Description: as §1

GDP-bound HRAS WT = molecular target: T3, GDP-bound HRAS WT (Homo sapiens, UniProt P01112); experiment: SOS1-mediated guanine nucleotide exchange assay (TR-FRET); type: biochemical; settings: GDP-bound HRAS WT; compound pre-incubation 25°C, 60 min; read-out: IC50
T3 construct: His-tagged HRAS WT (aa 1–166); made in house; host or cells: Escherichia coli
T3 sequence (P01112 1-166): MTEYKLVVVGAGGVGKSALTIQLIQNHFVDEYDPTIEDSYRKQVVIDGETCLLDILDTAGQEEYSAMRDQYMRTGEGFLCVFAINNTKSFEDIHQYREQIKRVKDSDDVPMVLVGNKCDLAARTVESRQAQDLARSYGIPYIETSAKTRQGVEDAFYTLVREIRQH

GppNp-bound HRAS WT = molecular target: T4, GppNp-bound HRAS WT (Homo sapiens, UniProt P01112); experiment: GppNp-loaded RAS and cRAF interaction assay (HTRF); type: biochemical; settings: GppNp-bound HRAS WT and cRAF RBD interaction; read-out: IC50
T4 construct: His-tagged HRAS WT (aa 1–166); made in house; host or cells: Escherichia coli
T4 sequence (P01112 1-166): as above

IC50 (GppNp-bound NRAS WT): > 10 µM | IC50 (GDP-bound NRAS WT): > 10 µM
Structure (SMILES): C=C(F)C(=O)N1CCN(c2nc(OC[C@@H]3CCCN3C)nc3c2CCN(c2cccc4cccc(Cl)c24)C3)C[C@@H]1CC#N [Adagrasib]

Structure (SMILES): Nc1nccc(Sc2cnc(N3CCC4(CC3)Cc3ncccc3[C@H]4N)cn2)c1Cl [JAB-3312]
TGI [1]: 64%

IC50 (GppNp-bound NRAS WT; GppNp-bound NRAS WT and cRAF RBD interaction, read-out: IC50): > 10 µM | IC50 [3]: 0.0271 µM | IC50 [4]: 0.0147 µM | IC50 (GDP-bound HRAS WT): > 10 µM | IC50 (GDP-bound NRAS WT; GDP-bound NRAS WT, compound pre-incubation 25°C, 60 min, read-out: IC50): > 10 µM | IC50 (GppNp-bound HRAS WT): > 10 µM
Structure (SMILES): C=CC(=O)N1CCN(c2nc(=O)n(-c3c(C)ccnc3C(C)C)c3nc(-c4c(O)cccc4F)c(F)cc23)[C@@H](C)C1 [Sotorasib, reference compound]
tumor response of rebound tumors [2]: continued to grow
